Data: US10947196B2, “Beta adrenergic agonist and methods of using the same” (CURASEN THERAPEUTICS, INC., priority 2019, dated 2021)
Read-outs that look alike come from different tables or passages of the source.

What was measured:
hERG channel = hERG channel (Homo sapiens (Human), UniProt Q12809); assay: hERG manual patch clamp; assay type: cell-based
Protocol: Cell lines and cell culture. HEK 293 cell line stably expressing hERG channel (Cat #K1236) was purchased from Invitrogen. The cells are cultured in 85% DMEM, 10% dialyzed FBS, 0.1 mM NEAA, 25 mM HEPES, 100 U/mL Penicillin-Streptomycin and 5 μg/mL Blasticidin and 400 μg/mL Geneticin. Cells were split using TrypLE™ Express about three times a week, and maintained between ˜40% to […] confluence. Before the assay, the cells were transferred onto the coverslips at 5×10^5 cells/per 6 cm cell culture dish and induced with doxycycline at 1 μg/mL for 48 hours.
Solution preparations. Extracellular solution (in mM): 132 NaCl, 4 KCl, 3 CaCl2, 0.5 MgCl2, 11.1 glucose, and 10 HEPES (pH adjusted to 7.35 with NaOH) Intracellular solution (in mM): 140 KCl, 2 MgCl2, 10 EGTA, 10 HEPES and 5 MgATP (pH adjusted to 7.35 with KOH). […]
Experimental procedure. […] The holding potential was set to −90 mV for 500 ms and the current was recorded at 50 kHz and filtered at 10 kHz. […]
The hERG current was elicited by depolarizing at +30 mV for 4.8 seconds and then the voltage was taken back to −50 mV for 5.2 seconds to remove the inactivation and observe the deactivating tail current. […] The current was recorded for 120 seconds to assess the current stability. […]
Data that met the above criteria for hERG current quality were further analyzed. Percent hERG current inhibition was calculated using the following equation. […]

[1] = Hepatocyte stability (monkey); assay type: in vitro ADME; details: 0.5×10^6 viable cells/mL
Protocol: (§1) 10 mM and 100 μM stock solutions of test compound(s) and a positive control were prepared in appropriate solvent (DMSO). In separate conical tubes, the 10 mM test compound and the positive control were diluted to 100 μM by combining 198 μL of 50% acetonitrile/50% water and 2 μL of 10 mM stock. The 100 μM test compound and the positive control were diluted to 30 μM by combining 140 μL of 50% acetonitrile/50% water and 60 μL of 100 μM stock solution. The 100 μM test compound and the positive control were diluted to 10 μM by combining 180 μL of 50% acetonitrile/50% water and 20 μL of 100 μM stock solution. The 100 μM test compound and the positive control were diluted to 3 μM by combining 194 μL of 50% acetonitrile/50% water and 6 μL of 100 μM stock solution.
(§2) Incubation medium (William's E Medium supplemented with GlutaMAX) and hepatocyte thawing medium was placed in a 37° C. water bath, and allowed to warm for at least 15 minutes prior to use. […]
(§3) Using AOPI staining solution, cells were counted and the viable cell density was determined. […]
(§4) All calculations were carried out using Microsoft Excel. Peak areas were determined from extracted ion chromatograms. […]
(§5) The in vitro half-life (in vitro t1/2) was determined from the slope value: in vitro t1/2=0.693/k

[2] = Hepatocyte stability (mouse); assay type: in vitro ADME; details: 0.5×10^6 viable cells/mL
Protocol: as §1, §2, §3, §4, §5

Sequence of hERG channel (Q12809 whole entry): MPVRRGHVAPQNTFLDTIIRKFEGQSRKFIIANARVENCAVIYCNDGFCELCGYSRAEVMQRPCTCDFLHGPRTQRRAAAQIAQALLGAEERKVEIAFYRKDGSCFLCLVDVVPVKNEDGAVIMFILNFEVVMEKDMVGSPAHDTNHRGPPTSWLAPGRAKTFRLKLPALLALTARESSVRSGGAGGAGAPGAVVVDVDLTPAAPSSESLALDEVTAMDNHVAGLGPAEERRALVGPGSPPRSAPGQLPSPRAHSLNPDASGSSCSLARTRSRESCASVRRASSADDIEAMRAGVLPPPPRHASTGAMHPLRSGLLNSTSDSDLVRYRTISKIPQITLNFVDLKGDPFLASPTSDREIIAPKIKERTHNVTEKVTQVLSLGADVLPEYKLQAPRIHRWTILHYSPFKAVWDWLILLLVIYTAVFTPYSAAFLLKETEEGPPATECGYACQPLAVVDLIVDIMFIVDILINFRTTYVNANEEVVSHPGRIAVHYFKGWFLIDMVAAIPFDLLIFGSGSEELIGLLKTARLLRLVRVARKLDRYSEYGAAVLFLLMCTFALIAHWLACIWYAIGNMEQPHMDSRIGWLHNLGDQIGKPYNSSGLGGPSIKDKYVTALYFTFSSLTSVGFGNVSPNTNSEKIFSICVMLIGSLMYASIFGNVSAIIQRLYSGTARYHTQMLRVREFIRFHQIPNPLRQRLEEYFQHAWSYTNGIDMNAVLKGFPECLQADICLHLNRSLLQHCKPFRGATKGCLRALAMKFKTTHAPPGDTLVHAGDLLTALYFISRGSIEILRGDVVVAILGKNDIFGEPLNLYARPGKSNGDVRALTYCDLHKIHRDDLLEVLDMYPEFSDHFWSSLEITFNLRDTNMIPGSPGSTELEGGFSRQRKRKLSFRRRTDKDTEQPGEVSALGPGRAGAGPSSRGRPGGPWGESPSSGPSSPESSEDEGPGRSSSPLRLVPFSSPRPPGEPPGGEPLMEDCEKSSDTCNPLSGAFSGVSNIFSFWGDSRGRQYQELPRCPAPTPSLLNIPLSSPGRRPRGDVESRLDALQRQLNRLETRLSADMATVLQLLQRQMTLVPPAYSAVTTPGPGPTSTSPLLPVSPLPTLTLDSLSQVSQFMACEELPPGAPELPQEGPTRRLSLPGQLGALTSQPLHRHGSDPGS

| Structure (SMILES) | IC50 (hERG channel) | Hepatocyte stability, Monkey [1] | Hepatocyte stability, Mouse [2] | IC50 (hERG channel; manual patch clamp, HEK 293 cells, read-out: hERG IC50) |
| --- | --- | --- | --- | --- |
| CC(C)(C)NC[C@H](O)c1cccc(C(F)(F)F)n1 [Compound 03-3] | > 30 µM | – | – | – |
| CC(C)(C)NC[C@H](O)c1cccc(C#N)n1 [Compound 03-5, (S)-6-(2-(tert-butylamino)-1-hydroxyethyl)picolinonitrile] | – | 1.88 μL/min/10^6 cells | 1.46 μL/min/10^6 cells | > 30 µM |
| Cc1ncccc1[C@@H](O)CNC(C)(C)C [Compound 03-115] | – | 1.26 μL/min/10^6 cells | 1.08 μL/min/10^6 cells | – |
